Laboratory results from patent US20240041042A1, “1-(PYRIDYL)-5-AZINYLPYRAZOLE DERIVATIVES, AND THEIR USE FOR CONTROL OF UNDESIRED PLANT GROWTH” (Bayer Aktiengesellschaft, priority 2020, published 2024).
Read-outs that look alike come from different tables or passages of the source.

Key:
Assay type in all cases: in vivo
Lolium rigidum (LOLRI) [1] = assay: Post-emergence herbicidal action against LOLRI; settings: dosage 320 g/ha
Method in brief: (§1)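 Post-emergence greenhouse spray, one-leaf stage, 600 l/ha water plus 0.5% additive; WP or EC formulations; application rates 320 g/ha or lower. Visual % damage vs untreated controls at ~3 weeks.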

[2] = tested on: Echinochloa crus-galli (ECHCG); assay: Post-emergence herbicidal action against ECHCG
Method in brief: as §1

Setaria viridis (SETVI) [3] = assay: Post-emergence herbicidal action against SETVI
Method in brief: as §1

Zea mays (ZEAMX) [4] = tested on: Zea mays (ZEAMX)
Method in brief: (§2)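 Visual rating (% effect vs. untreated plants; 100% = plant death) made about 3 weeks after treatment. Plants had been sprayed at one-leaf stage, 2–3 weeks post-sowing, with aqueous WP/EC preparations containing 0.5% additive, 600 l/ha water volume; a, b, c mark dose levels.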

[5] = tested on: Pharbitis purpurea (PHBPU); assay: Post-emergence herbicidal action against PHBPU; settings: dosage 320 g/ha
Method in brief: as §1

Setaria viridis (SETVI) [6] = assay: Pre-emergence herbicidal action against SETVI
Method in brief: (§3)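 Dosages of 320 g/ha or less; pre-emergence; WP or EC in aqueous spray, 0.5% additive, 600 l/ha; greenhouse; visual % effect after ~3 wk relative to control pots.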

Lolium rigidum (LOLRI) [7] = assay: Pre-emergence herbicidal action against LOLRI; settings: dosage 320 g/ha
Method in brief: as §3

[8] = tested on: Echinochloa crus-galli (ECHCG); assay: Pre-emergence herbicidal action against ECHCG; settings: dosage 320 g/ha
Method in brief: as §3

Zea mays (ZEAMX) [9] = settings: pre-emergence, 80 g/ha, crop plant compatibility, in comparison to untreated controls
Source text: Seeds of monocotyledonous and dicotyledonous weed plants and crop plants are placed in plastic or organic planting pots and covered with soil. The compounds of the invention, formulated in the form of wettable powders (WP) or as emulsion concentrates (EC), are then applied to the surface of the covering soil as aqueous suspension or emulsion with addition of 0.5% additive at a water application rate equivalent to 600 l/ha. After the treatment, the pots are placed in a greenhouse and kept under good growth conditions for the trial plants. After about 3 weeks, the effect of the preparations is scored visually in comparison with untreated controls as percentages. For example, 100% activity=the plants have died, 0% activity=like control plants.
The observed effects on selected crop plants are reported here in comparison to the untreated controls (values in %). The appendices “a” “b” and “c” give differentiation by dosage used with otherwise the same crop plants tested.

[10] = tested on: Matricaria inodora (MATIN); assay: Post-emergence herbicidal action against MATIN; settings: dosage 320 g/ha
Method in brief: as §1

[11] = tested on: Amaranthus retroflexus (AMARE); assay: Post-emergence herbicidal action against AMARE
Method in brief: as §1

[12] = tested on: Polygonum convolvulus (POLCO); assay: Post-emergence herbicidal action against POLCO; settings: dosage 320 g/ha
Method in brief: as §1

Avena fatua (AVEFA) [13] = assay: Post-emergence herbicidal action against AVEFA; settings: 320 g/ha, visual rating about 3 weeks after treatment
Method in brief: as §1

[14] = tested on: Verconica persica (VERPE); assay: Post-emergence herbicidal action against VERPE
Method in brief: as §1

[15] = tested on: Amaranthus retroflexus (AMARE); assay: Pre-emergence herbicidal action against AMARE; settings: visual scoring after about 3 weeks vs untreated controls
Method in brief: as §3

[16] = tested on: Matricaria inodora (MATIN); assay: Pre-emergence herbicidal action against MATIN
Method in brief: as §3

[17] = tested on: Alopecurus myosuroides (ALOMY); assay: Post-emergence herbicidal action against ALOMY; settings: visual rating about 3 weeks after treatment vs untreated controls (100% = plants have died, 0% = like control plants)
Method in brief: as §1

[18] = tested on: Alopecurus myosuroides (ALOMY); assay: Pre-emergence herbicidal action against ALOMY; settings: scored visually after about 3 weeks, 100% = plants have died
Method in brief: as §3

[19] = tested on: Verconica persica (VERPE); assay: Pre-emergence herbicidal action against VERPE; settings: dosage 320 g/ha
Method in brief: as §3

Avena fatua (AVEFA) [20] = assay: Pre-emergence herbicidal action against AVEFA; settings: 320 g/ha, visual scoring after about 3 weeks vs untreated controls
Method in brief: as §3

Oryza sativa (ORYSA) = settings: crop plant compatibility
Method in brief: as §2

[21] = tested on: Polygonum convolvulus (POLCO); assay: Pre-emergence herbicidal action against POLCO; settings: dosage 320 g/ha
Method in brief: as §3

Viola tricolor (VIOTR) [22] = assay: Pre-emergence herbicidal action against VIOTR
Method in brief: as §3

Viola tricolor (VIOTR) [23] = assay: Post-emergence herbicidal action against VIOTR
Method in brief: as §1

[24] = 80 g/ha, visual rating about 3 weeks after treatment vs untreated controls (100% = plants have died, 0% = like control plants)
[25] = 320 g/ha, visual rating about 3 weeks after treatment

| SMILES | Post-emergence action against ECHCG in % ([2]; dosage 80 g/ha) | Post-emergence action against ECHCG in % ([2]; dosage 320 g/ha) | Post-emergence action against SETVI in % (Setaria viridis (SETVI) [3]; dosage 320 g/ha) | Post-emergence action against PHBPU in % [5] | Pre-emergence action against SETVI in % (Setaria viridis (SETVI) [6]; dosage 320 g/ha) | Pre-emergence action against LOLRI in % (Lolium rigidum (LOLRI) [7]) | Pre-emergence action against ECHCG in % [8] | Pre-emergence action against ZEAMX in % (Zea mays (ZEAMX) [9]) | Post-emergence action against MATIN in % [10] | Post-emergence action against AMARE in % [11, 24] | Post-emergence action against AMARE in % [11, 25] | Post-emergence action against POLCO in % [12] | Pre-emergence action against AMARE in % ([15]; 80 g/ha) | Pre-emergence action against AMARE in % ([15]; 320 g/ha) | Pre-emergence action against MATIN in % ([16]; dosage 320 g/ha) | Pre-emergence action against ALOMY ([18]; 320 g/ha) | Post-emergence action against SETVI in % (Setaria viridis (SETVI) [3]; dosage 80 g/ha) | Pre-emergence action against POLCO in % [21] | Pre-emergence action against VIOTR in % (Viola tricolor (VIOTR) [22]; 320 g/ha, Viola tricolor) | further results |
| --- | --- | --- | --- | --- | --- | --- | --- | --- | --- | --- | --- | --- | --- | --- | --- | --- | --- | --- | --- | --- |
| CCOC(=O)COc1nn(-c2ccccn2)c(-c2ccc(F)nc2)c1F [Example I-305] | 90% | 90% | 90% | 90% | 90% | 90% | 90% | 0% | 80% | 80% | 90% | 80% | 80% | 90% | 90% | 90% | – | – | – | Post-emergence action against LOLRI in % (Lolium rigidum (LOLRI) [1]): 90%; Post-emergence action against ZEAMX in % (Zea mays (ZEAMX) [4]; crop plant compatibility, 80 g/ha, effect vs untreated controls): 0%; Post-emergence action against AVEFA in % (Avena fatua (AVEFA) [13]): 80%; Post-emergence action against VERPE in % ([14]; 320 g/ha, VERPE): 90%; Pre-emergence action against MATIN in % ([16]; dosage 80 g/ha): 80%; Post-emergence action against ALOMY in % ([17]; 320 g/ha): 100% |
| CC(C)N(C)S(=O)(=O)NC(=O)COc1nn(-c2ncccc2F)c(-c2ccc(F)nc2)c1Br [Example I-53] | 80% | – | – | – | 100% | 100% | 80% | 20% | – | 90% | – | – | 90% | 100% | 90% | 100% | 80% | 90% | 100% | Pre-emergence action against VERPE in % [19]: 100%; Pre-emergence action against AVEFA in % (Avena fatua (AVEFA) [20]): 100%; Post-emergence action against ZEAMX in % (crop plant compatibility) (Zea mays (ZEAMX) [4]; 20 g/ha, ZEAMX, effect in comparison to untreated controls): 10%; Post-emergence action against ORYSA in % (Oryza sativa (ORYSA); 20 g/ha, effect vs untreated controls): 10%; Pre-emergence action against SETVI in % (Setaria viridis (SETVI) [6]; dosage 80 g/ha): 90%; Pre-emergence action against VIOTR in % (Viola tricolor (VIOTR) [22]; dosage 80 g/ha): 90%; Post-emergence action against VERPE in % ([14]; dosage 80 g/ha): 80%; Post-emergence action against ALOMY in % ([17]; 80 g/ha): 90%; Pre-emergence action against ALOMY ([18]; 80 g/ha): 80% |
| O=C(O)CSc1nn(-c2ccccn2)c(-c2cncc(F)c2)c1I [Example I-229] | 80% | 80% | 80% | 80% | 90% | 80% | 90% | 0% | 80% | 80% | 80% | 80% | – | 80% | 80% | – | 80% | 90% | 90% | Post-emergence action against VIOTR in % (Viola tricolor (VIOTR) [23]; 80 g/ha): 80%; Post-emergence action against VIOTR in % (Viola tricolor (VIOTR) [23]; 320 g/ha): 80%; Post-emergence action against ORYSA in % (Oryza sativa (ORYSA); 80 g/ha, effect in comparison to untreated controls): 0% |
